In patent EP4438597A1, “2-STYRYLBENZOTHIAZOLE DERIVATIVES AS A-SYNUCLEIN BINDING COMPOUNDS” (Eberhard Karls Universität Tübingen Medizinische Fakultät, priority 2023, dated 2024):

Assays:
αSYN fibrils [1] = target: T1, αSYN fibrils (Homo sapiens, UniProt P37840); assay: [3H]PiB competition binding assay on αSYN fibrils
Description: (§1) Concentrations of αSYN and Aβ1-42 fibrils were as described above.
Plates were incubated on a shaker (MaxQ 6000, Thermo Fisher Scientific Inc., Marietta, OH, USA) at 50 rpm for 2 hours at 37°C, covered by removable sealing tapes (PerkinElmer, Waltham, MA, USA). […] Data points were fitted using non-linear regression analysis in GraphPad Prism (GraphPad Software, Inc., Version 8.4.0, La Jolla, USA).

Aβ1-42 fibrils = target: T2, Aβ1-42 fibrils (Homo sapiens, UniProt P05067); assay: [3H]PiB competition binding assay on Aβ fibrils; details: for binding to Aβ fibrils (competition with [3H]PiB): [3H]PiB competition on Aβ fibrils
T2 construct: Synthetic lyophilized human Aβ1-42 peptide; purchased EMC Microcollections, Tuebingen, Germany; host or cells: chemical synthesis
Text: The method for Aβ1-42 fibrils generation was adapted from Bagchi, D. P. et al., Binding of the radioligand SIL23 to alpha-synuclein fibrils in Parkinson disease brain tissue establishes feasibility and screening approaches for developing a Parkinson disease imaging agent; PLoS One 2013, 8 (2), e55031, and described in Kuebler, L. et al., [11C]MODAG-001-towards a PET tracer targeting α-synuclein aggregates; European Journal of Nuclear Medicine and Molecular Imaging 2020, 48, 1759-1772. Synthetic lyophilized human Aβ1-42 peptide (5 mg) with >90 % purity (EMC Microcollections, Tuebingen, Germany) was dissolved in DMSO (221.5 µL), followed by the addition of deionized water (4.1 mL) and 1 M Tris-HCl (111 µL, pH 7.6) to reach a final monomeric concentration of 250 µM. Aggregation was induced by incubation in Eppendorf Thermomixer at 37°C with shaking at 800 rpm for 72 hours. The resulted fibrils were sonicated for 3 min in a water bath (Elmasonic S 60 H, Elma Schmidbauer GmbH, Singen, Germany). The final products were aliquoted, frozen on dry ice, and stored at -80°C until use.
as §1
(§2) Plates were incubated on a shaker (MaxQ 6000, Thermo Fisher Scientific Inc., Marietta, OH, USA) at 50 rpm for 2 hours at 37°C, covered by removable sealing tapes (PerkinElmer, Waltham, MA, USA). Vacuum filtration and read-out were performed as disclosed in Kuebler, L. et al., [11C]MODAG-001-towards a PET tracer targeting α-synuclein aggregates; European Journal of Nuclear Medicine and Molecular Imaging 2020, 48, 1759-1772. […] Data points were fitted using non-linear regression analysis in GraphPad Prism (GraphPad Software, Inc., Version 8.4.0, La Jolla, USA).

αSYN pathology = target: T3, αSYN pathology (Homo sapiens, UniProt P37840); assay: in vitro autoradiography on human brain slices with αSYN pathology (MSA, PD); format: binding; details: mean over MSA brain slices
T3 construct: tissue Neurobiobank München (NBM, Munich, Germany); host or cells: post-mortem human brain slices (MSA cerebellum, PD frontal cortex, controls)
Description: Post-mortem human brain slices (10 µm thickness) were obtained from and the subject cases were analyzed by the Neurobiobank München (NBM, Munich, Germany), where tissues were collected on the basis of written informed consent according to the guidelines of the ethics committee of the Ludwig-Maximilians-University Munich, Germany (# 345-13). The use of brain tissue samples in this study was approved by the ethics committee of the Faculty of Medicine at the University of Tuebingen (Ethics approval number: 813/2018BO2). Table 1 summarizes the information of the subjects from which samples were obtained and used in the experiment.
For autoradiography, brain slices were thawed for one hour before preincubation in BSA buffer for 25 minutes at room temperature. To determine total binding (TB), brain slices were incubated with the tracer (10 nM [^18F]PFSB, 10 nM [^18F]MFSB). […]
Quantitative data analysis was performed by drawing four regions of interest (ROIs) in relevant areas of the slice and one ROI next to it for background subtraction (imaged 1.8.0_172, National Institute of Health, Bethesda, Maryland, USA) (Schneider, C. A. et al., NIH Image to imaged: 25 years of image analysis; Nat Methods 2012, 9 (7), 671-5). […] The SB disease/SB control ratio was calculated by dividing by the SB in diseased tissues with the respective SB in control tissues.

αSYN fibrils [2] = target: T1, αSYN fibrils; assay: [3H]MODAG-001 competition binding assay on αSYN fibrils; details: for Ki: competition with [3H]MODAG-001, αSYN fibrils
Description: as §1, §2

[3] = [3H]PiB competition, αSYN fibrils, mean Ki ± SEM, two data points (9a, 14a, 15a, 17a, 18a, 43, 44, MFSB three; 12a single), read-out: Ki

T2 sequence (P05067 672-713 limits assumed): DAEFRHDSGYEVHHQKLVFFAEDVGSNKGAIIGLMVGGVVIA

Question: With `C(=Cc1nc2ccccc2s1)c1ccc(N2CCOCC2)cc1` [15a, 4-(4-(2-(benzo[d]thiazol-2-yl)vinyl)phenyl)morpholine] as the compound, how does the Ki (αSYN fibrils [1]; [3]) read?
Answer: 92 ± 30.3 nM

Question: Which Ki (αSYN fibrils [1]; read-out: Ki) does the source give for `Cc1ccc2nc(C=Cc3ccc(N4CCCCC4)cc3)sc2c1` [7a, 6-methyl-2-(4-(piperidin-1-yl)styryl)benzo[d]thiazole] here?
Answer: 224 ± 6.1 nM

Question: `Fc1ccc2sc(C=Cc3ccc(N4CCCCC4)cc3)nc2c1` [6a, 5-fluoro-2-(4-(piperidin-1-yl)styryl)benzo[d]thiazole] was tested. Which Ki (αSYN fibrils [1]; read-out: Ki) did it give?
Answer: 147 ± 22.3 nM

Question: How did the Ki (αSYN fibrils [1]; read-out: Ki) turn out when `C[n+]1c(C=Cc2ccc(N3CCCCC3)cc2)sc2ccc(F)cc21` [6b, 5-fluoro-3-methyl-2-(4-(piperidin-1-yl)styryl)benzo[d]thiazol-3-ium iodide] was run?
Answer: 352 ± 83.5 nM

Question: How did the Ki (αSYN fibrils [1]; read-out: Ki) turn out when `C[n+]1c(C=CC=Cc2ccc(N3CCCCC3)cc2)sc2ccccc21` [14b, 3-methyl-2-(4-(4-(piperidin-1-yl)phenyl)buta-1,3-dien-1-yl)benzo[d]thiazol-3-ium iodide] was run?
Answer: 19.9 ± 3.1 nM

Question: How did the Ki (αSYN fibrils [1]; read-out: Ki) turn out when `COc1ccc2nc(C=Cc3ccc(N4CCCCC4)cc3)sc2c1` [8a, 6-methoxy-2-(4-(piperidin-1-yl)styryl)benzo[d]thiazole] was run?
Answer: 106 ± 3.6 nM

Question: Which Ki (αSYN fibrils [1]; read-out: Ki) does the source give for `COc1ccc2sc(C=Cc3ccc(N4CCCCC4)cc3)[n+](C)c2c1` [5b, 5-methoxy-3-methyl-2-(4-(piperidin-1-yl)styryl)benzo[d]thiazol-3-ium iodide] here?
Answer: 95.2 ± 67.7 nM

Question: Which Ki (αSYN fibrils [1]) does the source give for `Cc1cccc2sc(/C=C/c3ccc(N4CCCCC4)cc3)[n+](C)c12` [1b, 3,4-dimethyl-2-(4-(piperidin-1-yl)styryl)benzo[d]thiazol-3-ium 4-nitrobenzenesulfonate] here?
Answer: 60 ± 23.9 nM

Question: For `Cc1cccc2c1sc(C=Cc1ccc(N3CCCCC3)cc1)[n+]2C` [10b, 3,7-dimethyl-2-(4-(piperidin-1-yl)styryl)benzo[d]thiazol-3-ium iodide], which Ki (αSYN fibrils [1]; read-out: Ki) is on record?
Answer: 148 ± 83.7 nM

Question: `Fc1ccc2nc(C=CC=Cc3ccc(N4CCCCC4)cc3)sc2c1` [compound 43, 6-fluoro-2-(4-(4-(piperidin-1-yl)phenyl)buta-1,3-dien-1-yl)benzo[d]thiazole] was tested. Which Ki (αSYN fibrils [1]; [3]) did it give?
Answer: 214 ± 122 nM

Question: What about the “binding to Aβ fibrils (competition with [3H]PiB)” value (Aβ1-42 fibrils) of the same compound?
Answer: low

Question: With `COc1ccc2c(c1)sc(C=Cc1ccc(N3CCCCC3)cc1)[n+]2C` [8b, 6-methoxy-3-methyl-2-(4-(piperidin-1-yl)styryl)benzo[d]thiazol-3-ium iodide] as the compound, how does the Ki (αSYN fibrils [1]; read-out: Ki) read?
Answer: 14.7 ± 5.1 nM

Question: How did the Ki (αSYN fibrils [1]; [3]) turn out when `FC1CCN(c2ccc(C=Cc3nc4ccccc4s3)cc2)CC1` [18a, 2-(4-(4-fluoropiperidin-1-yl)styryl)benzo[d]thiazole] was run?
Answer: 99.8 ± 32.6 nM

Question: For `C(C=Cc1nc2ccccc2s1)=Cc1ccc(N2CCCCC2)cc1` [14a, 2-(4-(4-(piperidin-1-yl)phenyl)buta-1,3-dien-1-yl)benzo[d]thiazole], which Ki (αSYN fibrils [1]; [3]) is on record?
Answer: 81.9 ± 15.6 nM

Question: For `COc1cccc2sc(C=Cc3ccc(N4CCCCC4)cc3)[n+](C)c12` [2b, 4-methoxy-3-methyl-2-(4-(piperidin-1-yl)styryl)benzo[d]thiazol-3-ium iodide], which Ki (αSYN fibrils [1]; read-out: Ki) is on record?
Answer: 52.6 ± 18.3 nM

Question: With `C(=Cc1nc2ccccc2s1)c1ccc(N2CCSCC2)cc1` [16a, 2-(4-thiomorpholinostyryl)benzo[d]thiazole] as the compound, how does the Ki (αSYN fibrils [1]; read-out: Ki) read?
Answer: 139 ± 80.2 nM

Question: What does the source list for `Fc1ccc2nc(C=CC=Cc3ccc(N4CCCC4)cc3)sc2c1` [compound 44, 6-fluoro-2-(4-(4-(pyrrolidin-1-yl)phenyl)buta-1,3-dien-1-yl)benzo[d]thiazole]?
Answer: Ki (αSYN fibrils [1]; [3]): 85 ± 41 nM; binding to Aβ fibrils (competition with [3H]PiB) (Aβ1-42 fibrils): low

Question: With `C(=Cc1nc2ccccc2s1)c1ccc(N2CCCCC2)cc1` [compound 20, 2-(4-(piperidin-1-yl)styryl)benzo[d]thiazole] as the compound, how does the Ki (αSYN fibrils [1]; read-out: Ki) read?
Answer: 102 ± 68.5 nM

Question: How did the Ki (αSYN fibrils [1]; read-out: Ki) turn out when `C[n+]1c(C=Cc2ccc(N3CCCCC3)cc2)sc2cc(F)ccc21` [9b, 6-fluoro-3-methyl-2-(4-(piperidin-1-yl)styryl)benzo[d]thiazol-3-ium iodide] was run?
Answer: 189 ± 146 nM

Question: For `[18F]c1ccc2nc(/C=C/c3ccc(N4CCCCC4)cc3)sc2c1` [[^18F]PFSB], which “specific binding (SB) ratio, MSA patients compared to control of the same brain area” value (αSYN pathology) is on record?
Answer: 3.94 ± 0.30

Question: `Fc1cccc2sc(C=Cc3ccc(N4CCCCC4)cc3)nc12` [3a, 4-fluoro-2-(4-(piperidin-1-yl)styryl)benzo[d]thiazole] was tested. Which Ki (αSYN fibrils [1]; read-out: Ki) did it give?
Answer: 149 ± 38 nM

Question: `Fc1ccc2nc(C=Cc3ccc(N4CCOCC4)cc3)sc2c1` [compound 45, 4-(4-(2-(6-fluorobenzo[d]thiazol-2-yl)vinyl)phenyl)morpholine] was tested. Which “affinity improved by factor compared to PFSB” value (αSYN fibrils [1]; [3H]PiB competition, αSYN fibrils, MFSB vs PFSB) did it give?
Answer: 2.5

Question: What about the Ki (αSYN fibrils [1]; [3]) of the same compound?
Answer: 10.3 ± 4.7 nM

Question: And the “selectivity towards αSYN over Aβ” value (Aβ1-42 fibrils; from [3H]PiB competition on αSYN and Aβ fibrils)?
Answer: remained unchanged

Question: And the “fold lower Ki than PFSB” value (αSYN fibrils [2]; [3H]MODAG-001 competition, MFSB vs PFSB)?
Answer: 4.6 fold

Question: And the Ki (αSYN fibrils [2])?
Answer: 30.8 ± 10.5 nM

Question: `C[n+]1c(C=Cc2ccc(N3CCCC3)cc2)sc2ccccc21` [17b, 3-methyl-2-(4-(pyrrolidin-1-yl)styryl)benzo[d]thiazol-3-ium iodide] was tested. Which Ki (αSYN fibrils [1]; read-out: Ki) did it give?
Answer: 102 ± 43 nM

Question: How did the Ki (αSYN fibrils [1]; read-out: Ki) turn out when `COc1cccc2c1sc(C=Cc1ccc(N3CCCCC3)cc1)[n+]2C` [11b, 7-methoxy-3-methyl-2-(4-(piperidin-1-yl)styryl)benzo[d]thiazol-3-ium iodide] was run?
Answer: 206 ± 28.2 nM

Question: For `Fc1cccc2nc(C=Cc3ccc(N4CCCCC4)cc3)sc12` [12a, 7-fluoro-2-(4-(piperidin-1-yl)styryl)benzo[d]thiazole], which Ki (αSYN fibrils [1]; [3]) is on record?
Answer: 283 nM

Question: With `Fc1ccc2nc(C=Cc3ccc(N4CCCCC4)cc3)sc2c1` (mixture of isomers) [9a, 6-fluoro-2-(4-(piperidin-1-yl)styryl)benzo[d]thiazole] as the compound, how does the Ki (αSYN fibrils [1]; [3]) read?
Answer: 25.4 ± 2.3 nM

Question: What about the Ki (αSYN fibrils [2]) of the same compound?
Answer: 142 ± 16.9 nM

Question: With `c1ccc2sc(-c3ccc(N4CCCCC4)cc3)nc2c1` [13a, 2-(4-(piperidin-1-yl)phenyl)benzo[d]thiazole] as the compound, how does the Ki (αSYN fibrils [1]; read-out: Ki) read?
Answer: 73.3 ± 61.2 nM

Question: `Cc1ccc2sc(C=Cc3ccc(N4CCCCC4)cc3)[n+](C)c2c1` [4b, 3,5-dimethyl-2-(4-(piperidin-1-yl)styryl)benzo[d]thiazol-3-ium iodide] was tested. Which Ki (αSYN fibrils [1]; read-out: Ki) did it give?
Answer: 72.2 ± 12.4 nM

Question: Which Ki (αSYN fibrils [1]; read-out: Ki) does the source give for `Cc1ccc2c(c1)sc(C=Cc1ccc(N3CCCCC3)cc1)[n+]2C` [7b, 3,6-dimethyl-2-(4-(piperidin-1-yl)styryl)benzo[d]thiazol-3-ium iodide] here?
Answer: 20.3 ± 3.5 nM

Question: For `Cc1cccc2sc(C=Cc3ccc(N4CCCCC4)cc3)nc12` [1a, 4-methyl-2-(4-(piperidin-1-yl)styryl)benzo[d]thiazole], which Ki (αSYN fibrils [1]; read-out: Ki) is on record?
Answer: 135 ± 63.5 nM

Question: For `Cc1ccc2sc(C=Cc3ccc(N4CCCCC4)cc3)nc2c1` [4a, 5-methyl-2-(4-(piperidin-1-yl)styryl)benzo[d]thiazole], which Ki (αSYN fibrils [1]; read-out: Ki) is on record?
Answer: 161 ± 72.7 nM

Question: Which Ki (αSYN fibrils [1]; [3]) does the source give for `C(=Cc1nc2ccccc2s1)c1ccc(N2CCCC2)cc1` [17a, 2-(4-(pyrrolidin-1-yl)styryl)benzo[d]thiazole] here?
Answer: 73.4 ± 19 nM

Question: With `COc1ccc2sc(C=Cc3ccc(N4CCCCC4)cc3)nc2c1` [5a, 5-methoxy-2-(4-(piperidin-1-yl)styryl)benzo[d]thiazole] as the compound, how does the Ki (αSYN fibrils [1]; read-out: Ki) read?
Answer: 158 ± 29.7 nM
